Test results as given in patent US20060069132A1, “Azolecarboxamide herbicides” (priority 2004, published 2006).

Tests used:
winter barley = test: Test F pre-/postemergence herbicide test; format: in vivo, Hordeum vulgare
From the text: (§1) Seeds of plant species selected from annual blugrass (Poa annua L.), blackgrass (Alopecurus myosuroides Huds.), catchweed bedstraw (Gallium aparine L.), common chickweed (Stellaria media (L.) Vill./Cyr.), downy bromegrass (Bromus tectorum L.), green foxtail (Setaria viridis (L.) Beauv.), Italian ryegrass (Lolium multiflorum Lam.), kochia (Kochia scoparia (L.). Schrad.), lambsquarters (Chenopodium album L.), littleseed canarygrass (Phalaris minor Retz.), pigweed (Amaranthus retroflexus L.), Russian thistle (Salsola kali L. ssp. Ruthenica (Iljin) Soo), wild buckwheat (Polygonum convolvulus L.), wild mustard (Sinapis arvensis L.), wild oat (Avena fatua L.), windgrass (Apera spica-venti (L.) Beauv.), winter barley (Hordeum vulgare L.), and wheat (Triticum aestivum L.) were planted and treated preemergence with test chemicals formulated in a non-phytotoxic solvent mixture which included a surfactant.
(§2) At the same time, plants selected from these crop and weed species were treated with postemergence applications of some of the test chemicals formulated in the same manner. Plants ranged in height from 2 to 18 cm (1- to 4-leaf stage) for postemergence treatments. Treated plants and controls were maintained in a greenhouse for 12 to 14 days, after which time all species were compared to controls and visually evaluated. Plant response ratings, summarized in Table F, are based on a scale of 0 to 100 where 0 is no effect and 100 is complete control. A dash (-) response means no test result.

wheat = test: Test F pre-/postemergence herbicide test; format: in vivo, Triticum aestivum
From the text: as §1, §2

blackgrass = test: Test F pre-/postemergence herbicide test; format: in vivo, Alopecurus myosuroides
From the text: as §1, §2

annual blugrass = test: Test F pre-/postemergence herbicide test; format: in vivo, Poa annua
From the text: as §1, §2

green foxtail = test: Test F pre-/postemergence herbicide test; format: in vivo, Setaria viridis
From the text: as §1, §2

downy bromegrass = test: Test F pre-/postemergence herbicide test; format: in vivo, Bromus tectorum
From the text: as §1, §2

catchweed bedstraw = test: Test F pre-/postemergence herbicide test; format: in vivo, Gallium aparine; conditions: Preemergence
From the text: as §1, §2

wild mustard = test: Test F pre-/postemergence herbicide test; format: in vivo, Sinapis arvensis
From the text: as §1, §2

littleseed canarygrass = test: Test F pre-/postemergence herbicide test; format: in vivo, Phalaris minor
From the text: as §1, §2

common chickweed = test: Test F pre-/postemergence herbicide test; format: in vivo, Stellaria media
From the text: as §1, §2

wheat cv. Retical = test: Test H safening on wheat by naphthalic anhydride seed treatment, pre-/postemergence; format: in vivo, Triticum aestivum; design: key to Response of wheat, Without naphthalic anhydride seed treatment: 0 = no effect, 100 = complete plant death, vs untreated control
Experimental: This test evaluated the safening of compounds of the invention on wheat (Triticum aestivumL.) cv. ‘Retical’ by seed treatment with naphthalic anhydride. Some of the wheat seed was treated with napthalic anhydride as a 1% by weight seed dressing. The wheat seed were planted in pots containing pasteurized Sassafras sandy loam soil. For postemergence testing the plants were grown 8 days to the 2-leaf stage at time of treatment. Preemergence treatments were applied the same day that the seeds were planted. Treatments were applied by spraying the test compounds formulated in a non-phytotoxic solvent mixture, using a flat fan nozzle and a spray volume of 280 L/ha. The preemergence treatments were triply replicated and the results subsequently averaged. The pots were placed on a growth chamber bench using a complete randomized block design for the preemergence test except for the first replicate, which was unrandomized. The plants were grown in the growth chamber and watered as needed with a dilute nutrient solution containing 200 ppm of N. Illumination was provided by fluorescent lamps giving 200-300 μE/m^2/S of photosynthetically active radiation over a 14-hour photoperiod. The temperature was maintained at 23±2° C. during the day and 17±2° C. at night. The effects of the treatments were rated 25 days after preemergence treatment and 14 days after postemergence treatment. The plant response was visually rated in comparison to untreated controls using a scale of 0 to 100, with 0 representing no effect and 100 representing complete plant death. The results for the compounds tested preemergence are listed in Table H1, and the results for the compounds tested postemergence are listed in Table H2.

kochia = test: Test F pre-/postemergence herbicide test; format: in vivo, Kochia scoparia
From the text: as §1, §2

lambsquarters = test: Test F pre-/postemergence herbicide test; format: in vivo, Chenopodium album
From the text: as §1, §2

CCn1nc(C(C)(C)C)cc1C(=O)Nc1cccc(C(N)=O)n1 [Compound 162, 6-[[[3-(1,1-dimethylethyl)-1-ethyl-1H-pyrazol-5-yl]carbonyl]amino]-2-pyridinecarboxamide]
70: Plant response rating (0-100), Barley, Winter (winter barley; Preemergence, 62 g ai/ha) | Plant response rating (0-100), Wheat (wheat; Postemergence, 500 g ai/ha) | Plant response rating (0-100), Blackgrass (blackgrass; Postemergence, 62 g ai/ha) | Plant response rating (0-100), Foxtail, Green (green foxtail; Preemergence, 62 g ai/ha) | Plant response rating (0-100), Bromegrass, Downy (downy bromegrass; Preemergence, 62 g ai/ha) | Plant response rating (0-100), Galium (catchweed bedstraw; 125 g ai/ha) | Plant response rating (0-100), Canarygrass (littleseed canarygrass; Postemergence, 62 g ai/ha) | Plant response rating (0-100), Canarygrass (littleseed canarygrass; Postemergence, 125 g ai/ha) | Plant response rating (0-100), Chickweed (common chickweed; Postemergence, 62 g ai/ha) | Response of wheat, Without naphthalic anhydride seed treatment (wheat cv. Retical; postemergence, 125 g a.i./ha)
98: Response of wheat, Without naphthalic anhydride seed treatment (wheat cv. Retical; preemergence, 125 g a.i./ha) | Response of wheat, Without naphthalic anhydride seed treatment (wheat cv. Retical; preemergence, 250 g a.i./ha)
90: Plant response rating (0-100), Blackgrass (blackgrass; Preemergence, 62 g ai/ha) | Plant response rating (0-100), Bluegrass (annual blugrass; Postemergence, 250 g ai/ha) | Plant response rating (0-100), Bromegrass, Downy (downy bromegrass; Postemergence, 500 g ai/ha)
100: Plant response rating (0-100), Barley, Winter (winter barley; Preemergence, 125 g ai/ha) | Plant response rating (0-100), Barley, Winter (winter barley; Preemergence, 250 g ai/ha) | Plant response rating (0-100), Barley, Winter (winter barley; Preemergence, 500 g ai/ha) | Plant response rating (0-100), Wheat (wheat; Preemergence, 125 g ai/ha) | Plant response rating (0-100), Wheat (wheat; Preemergence, 250 g ai/ha) | Plant response rating (0-100), Wheat (wheat; Preemergence, 500 g ai/ha) | Plant response rating (0-100), Blackgrass (blackgrass; Postemergence, 250 g ai/ha) | Plant response rating (0-100), Blackgrass (blackgrass; Postemergence, 500 g ai/ha) | Plant response rating (0-100), Blackgrass (blackgrass; Preemergence, 125 g ai/ha) | Plant response rating (0-100), Blackgrass (blackgrass; Preemergence, 250 g ai/ha) | Plant response rating (0-100), Blackgrass (blackgrass; Preemergence, 500 g ai/ha) | Plant response rating (0-100), Bluegrass (annual blugrass; Postemergence, 500 g ai/ha) | Plant response rating (0-100), Bluegrass (annual blugrass; Preemergence, 62 g ai/ha) | Plant response rating (0-100), Bluegrass (annual blugrass; Preemergence, 125 g ai/ha) | Plant response rating (0-100), Bluegrass (annual blugrass; Preemergence, 250 g ai/ha) | Plant response rating (0-100), Bluegrass (annual blugrass; Preemergence, 500 g ai/ha) | Plant response rating (0-100), Foxtail, Green (green foxtail; Postemergence, 500 g ai/ha) | Plant response rating (0-100), Foxtail, Green (green foxtail; Preemergence, 125 g ai/ha) | Plant response rating (0-100), Foxtail, Green (green foxtail; Preemergence, 250 g ai/ha) | Plant response rating (0-100), Foxtail, Green (green foxtail; Preemergence, 500 g ai/ha) | Plant response rating (0-100), Bromegrass, Downy (downy bromegrass; Preemergence, 125 g ai/ha) | Plant response rating (0-100), Bromegrass, Downy (downy bromegrass; Preemergence, 250 g ai/ha) | Plant response rating (0-100), Bromegrass, Downy (downy bromegrass; Preemergence, 500 g ai/ha) | Plant response rating (0-100), Galium (catchweed bedstraw; 250 g ai/ha) | Plant response rating (0-100), Galium (catchweed bedstraw; 500 g ai/ha) | Plant response rating (0-100), Mustard, Wild (wild mustard; Postemergence, 250 g ai/ha) | Plant response rating (0-100), Mustard, Wild (wild mustard; Postemergence, 500 g ai/ha) | Plant response rating (0-100), Mustard, Wild (wild mustard; Preemergence, 250 g ai/ha) | Plant response rating (0-100), Mustard, Wild (wild mustard; Preemergence, 500 g ai/ha) | Plant response rating (0-100), Canarygrass (littleseed canarygrass; Postemergence, 250 g ai/ha) | Plant response rating (0-100), Canarygrass (littleseed canarygrass; Postemergence, 500 g ai/ha) | Plant response rating (0-100), Canarygrass (littleseed canarygrass; Preemergence, 62 g ai/ha) | Plant response rating (0-100), Canarygrass (littleseed canarygrass; Preemergence, 125 g ai/ha) | Plant response rating (0-100), Canarygrass (littleseed canarygrass; Preemergence, 250 g ai/ha) | Plant response rating (0-100), Canarygrass (littleseed canarygrass; Preemergence, 500 g ai/ha) | Plant response rating (0-100), Chickweed (common chickweed; Postemergence, 250 g ai/ha) | Plant response rating (0-100), Chickweed (common chickweed; Postemergence, 500 g ai/ha) | Plant response rating (0-100), Chickweed (common chickweed; Preemergence, 62 g ai/ha) | Plant response rating (0-100), Chickweed (common chickweed; Preemergence, 125 g ai/ha) | Plant response rating (0-100), Chickweed (common chickweed; Preemergence, 250 g ai/ha) | Plant response rating (0-100), Chickweed (common chickweed; Preemergence, 500 g ai/ha) | Plant response rating (0-100), Kochia (kochia; Postemergence, 62 g ai/ha) | Plant response rating (0-100), Kochia (kochia; Postemergence, 125 g ai/ha) | Plant response rating (0-100), Kochia (kochia; Postemergence, 250 g ai/ha) | Plant response rating (0-100), Kochia (kochia; Postemergence, 500 g ai/ha) | Plant response rating (0-100), Kochia (kochia; Preemergence, 125 g ai/ha) | Plant response rating (0-100), Kochia (kochia; Preemergence, 250 g ai/ha) | Plant response rating (0-100), Kochia (kochia; Preemergence, 500 g ai/ha) | Plant response rating (0-100), Lambsquarters (lambsquarters; Postemergence, 62 g ai/ha) | Plant response rating (0-100), Lambsquarters (lambsquarters; Postemergence, 125 g ai/ha) | Plant response rating (0-100), Lambsquarters (lambsquarters; Postemergence, 250 g ai/ha) | Plant response rating (0-100), Lambsquarters (lambsquarters; Postemergence, 500 g ai/ha) | Plant response rating (0-100), Lambsquarters (lambsquarters; Preemergence, 62 g ai/ha) | Plant response rating (0-100), Lambsquarters (lambsquarters; Preemergence, 125 g ai/ha) | Plant response rating (0-100), Lambsquarters (lambsquarters; Preemergence, 250 g ai/ha) | Plant response rating (0-100), Lambsquarters (lambsquarters; Preemergence, 500 g ai/ha)
96: Response of wheat, With 1% naphthalic anhydride seed treatment (wheat cv. Retical; preemergence, 250 g a.i./ha)
60: Plant response rating (0-100), Wheat (wheat; Preemergence, 62 g ai/ha) | Plant response rating (0-100), Bluegrass (annual blugrass; Postemergence, 62 g ai/ha) | Plant response rating (0-100), Bluegrass (annual blugrass; Postemergence, 125 g ai/ha) | Plant response rating (0-100), Foxtail, Green (green foxtail; Postemergence, 250 g ai/ha) | Plant response rating (0-100), Galium (catchweed bedstraw; 62 g ai/ha) | Plant response rating (0-100), Mustard, Wild (wild mustard; Postemergence, 62 g ai/ha) | Response of wheat, Without naphthalic anhydride seed treatment (wheat cv. Retical; preemergence, 62 g a.i./ha) | Plant response rating (0-100), Kochia (kochia; Preemergence, 62 g ai/ha)
40: Plant response rating (0-100), Barley, Winter (winter barley; Postemergence, 62 g ai/ha) | Plant response rating (0-100), Wheat (wheat; Postemergence, 125 g ai/ha)
50: Plant response rating (0-100), Barley, Winter (winter barley; Postemergence, 125 g ai/ha) | Plant response rating (0-100), Wheat (wheat; Postemergence, 250 g ai/ha) | Plant response rating (0-100), Foxtail, Green (green foxtail; Postemergence, 62 g ai/ha) | Plant response rating (0-100), Foxtail, Green (green foxtail; Postemergence, 125 g ai/ha) | Plant response rating (0-100), Bromegrass, Downy (downy bromegrass; Postemergence, 62 g ai/ha) | Plant response rating (0-100), Bromegrass, Downy (downy bromegrass; Postemergence, 125 g ai/ha)
62: Response of wheat, With 1% naphthalic anhydride seed treatment (wheat cv. Retical; preemergence, 125 g a.i./ha)
5: Response of wheat, With 1% naphthalic anhydride seed treatment (wheat cv. Retical; postemergence, 62 g a.i./ha) | Response of wheat, Without naphthalic anhydride seed treatment (wheat cv. Retical; postemergence, 62 g a.i./ha)
47: Response of wheat, With 1% naphthalic anhydride seed treatment (wheat cv. Retical; preemergence, 62 g a.i./ha)
80: Plant response rating (0-100), Barley, Winter (winter barley; Postemergence, 250 g ai/ha) | Plant response rating (0-100), Barley, Winter (winter barley; Postemergence, 500 g ai/ha) | Plant response rating (0-100), Blackgrass (blackgrass; Postemergence, 125 g ai/ha) | Plant response rating (0-100), Bromegrass, Downy (downy bromegrass; Postemergence, 250 g ai/ha) | Plant response rating (0-100), Mustard, Wild (wild mustard; Postemergence, 125 g ai/ha) | Plant response rating (0-100), Mustard, Wild (wild mustard; Preemergence, 62 g ai/ha) | Plant response rating (0-100), Mustard, Wild (wild mustard; Preemergence, 125 g ai/ha) | Plant response rating (0-100), Chickweed (common chickweed; Postemergence, 125 g ai/ha)
30: Response of wheat, With 1% naphthalic anhydride seed treatment (wheat cv. Retical; postemergence, 125 g a.i./ha)
20: Plant response rating (0-100), Wheat (wheat; Postemergence, 62 g ai/ha)
